The values below come from patent US20170283408A1, “BENZO-HETEROCYCLIC COMPOUNDS AND THEIR APPLICATIONS” (priority 2014, published 2017).

For data set [1], the system named is B16F10 lung metastases. Briefly: B16F10 lung metastasis model in C57BL/6 mice. The note with it: 2 mg/kg ip daily, day 14, n=11/group. Type of data set: in vivo. The method, then:
C57BL/6 (n=11/group) mice were injected i.v. with 2×10^5 of the B16F10 tumor cells. Two mg/kg of ML-A1-B, ML-A1-C, or with DMSO vehicle control were used. The animals were killed on day 14 and tumor nodules in the lungs were counted. Data are presented as the number of each individual mouse and the mean of each group. Representative photographs of the lung of each group are also shown (left).
(§1) C57BL/6 mice (6 to 8 weeks old) and NOD/SCID mice (6 to 8 weeks old) were purchased from the National Laboratory Animal Center (Taipei, Taiwan). All animal experiments were performed under specific pathogen-free conditions and in accordance with guidelines approved by the Animal Care and Usage Committee of Mackay memorial hospital (Taipei, Taiwan).
To generate lung metastases, mice were injected intravenously with 2×10^5 B16F10 cells, a dose consistently yielding lung metastases in 100% of animals. 2 mg/kg compounds and 5% DMSO vehicle control were given ip daily to test the effect of compounds on tumor metastatsis. The amount of tumor seeding was counted as total numbers of black nodules presented in the lungs under microscopy.
To examine the therapeutic effect of ML-A1-B and ML-A1-C against pre-established B16F10 lung metastases, mice were iv injected with 2×10^5 B16F10 tumor cells and treated with, per mouse, 2 mg/kg of ML-A1-B, ML-A1-C, or with DMSO vehicle control.

For data set [2], the system named is B16F10 lung metastases. Briefly: B16F10 lung metastasis model in NOD/SCID mice. To be noted: 2 mg/kg, day 14, n=5/group. The data set is classed as in vivo. The method, then:
NOD/SCID (n=5/group) mice were injected i.v. with 2×10^5 of the B16F10 tumor cells. Two mg/kg of ML-A1-B, ML-A1-C, or with DMSO vehicle control were used. The animals were killed on day 14 and tumor nodules in the lungs were counted. Data are presented as the number of each individual mouse and the mean of each group. Representative photographs of the lung of each group are also shown (left).
as §1
To generate lung metastases, mice were injected intravenously with 2×10^5 B16F10 cells, a dose consistently yielding lung metastases in 100% of animals. 2 mg/kg compounds and 5% DMSO vehicle control were given ip daily to test the effect of compounds on tumor metastatsis. The amount of tumor seeding was counted as total numbers of black nodules presented in the lungs under microscopy. […]

Data set [3] in a line: In vivo toxic study (body weight). The note with it: 20 mg/kg ip daily; C57BL/6. The method, then:
C57BL/6 mice were ip injected daily with 20 mg/kg of ML-A1-B, or ML-A1-C, or 5% DMSO vehicle control, and their body weight were measured on the indicated days.
To investigate toxicity of ML-A1-B and ML-A1-C, mice were injected ip daily with 20 mg/kg of ML-A1-B or ML-A1-C or 5% DMSO vehicle control.

Data set [4] deals with PD-L1. Briefly: PD-L1 expression on IFN-γ stimulated B16F10 cells (flow cytometry). Type of data set: cell-based, murine. The note with it: various concentrations, 1 day; FIG. 5. The method, then:
IFN-γ stimulated-monocytes were incubated in the presence of either a DMSO vehicle control, ML-A1-B or ML-A1-C for 1 day. Treated cells were harvested and the PD-L1 molecules were analyzed using flow cytometry. Surface molecule expression is presented as the MFI relative to each day that the cells were treated with the DMSO vehicle control medium. Values are presented as the mean±SEM from 3 independent experiments. White blood cells of test subjects including healthy volunteers recruited from the Taiwan Blood Service Foundation (Taipei, Taiwan) and septic patients were obtained with written informed consents. Human monocytes were then isolated in accordance with procedures described previously (Chen I H et al., Cancer Immunol Immunother (2010) 59, 323-334). Briefly, peripheral blood mononuclear cells (PBMCs) were isolated using Ficoll-Paque Plus (GE Healthcare) gradient centrifugation. The monocytes were further purified by conducting CD14 selection using CD14 MACS microbeads (Miltenyi Biotec). The purity of monocytes confirmed using flow cytometry analysis was approximately 90%. Monocytes were incubated with endotoxin LPS (100 ng/ml) for 72 hours. At the indicated time point, the cells were harvested and the PD-L1 and HLA-DR molecules were analyzed using flow cytometry. […]

For data set [5], the system named is PD-L1. Briefly: PD-L1 level in LPS-primed monocyte model (flow cytometry). Type of data set: cell-based, human. The note with it: for expression level of PD-L1 in LPS-primed monocytes, of that of the control: compound at 10 μM, LPS 100 ng/mL, relative to control. The text has this:
(§2) White blood cells of test subjects including healthy volunteers recruited from the Taiwan Blood Service Foundation (Taipei, Taiwan) and septic patients were obtained with written informed consents. Human monocytes were then isolated in accordance with procedures described previously (Chen I H et al., Cancer Immunol Immunother (2010) 59, 323-334). Briefly, peripheral blood mononuclear cells (PBMCs) were isolated using Ficoll-Paque Plus (GE Healthcare) gradient centrifugation. The monocytes were further purified by conducting CD14 selection using CD14 MACS microbeads (Miltenyi Biotec). The purity of monocytes confirmed using flow cytometry analysis was approximately 90%. Monocytes were incubated with endotoxin LPS (100 ng/ml) for 72 hours. At the indicated time point, the cells were harvested and the PD-L1 and HLA-DR molecules were analyzed using flow cytometry. Murine B16F10 cell lines maintained in Dulbecco's modified Eagle's medium (DMEM), 10% heat-inactivated fetal calf serum, 2 mM L-glutamine, penicillin (100 U/ml), and streptomycin (100 μg/ml) at 37 C in a 5% CO2 humidified atmosphere.
(§3) To analyze the surface phenotype of the monocytes, the cells were incubated for 30 minutes on ice in the dark with the following mAbs diluted in phosphate-buffered saline (PBS) containing 1% BSA: PD-L1-FITC, HLA-DR-PE, CD14-PerCP (BD Biosciences). Monocytes were gated based on their FSC/SSC properties. Fluorescence was detected using FACS Calibur, and data analysis was performed using FCS Express version 3 (De Novo Software).
In this example, an LPS-primed monocyte model was established and then used to evaluate the function of the compound of example 1. Specifically, monocytes isolated from healthy subjects according to procedures described in the “Materials and methods” section were incubated with LPS (100 ng/mL) for 72 hours, then respective levels of PD-L1 and HLA-DR were determined. Results are illustrated in FIG. 2.
The effects of the compounds of example 1 were tested in the LPS-primed monocyte model of example 3.1, in which various concentrations of ML-C19-A, ML-C19-B, ML-A1-B, and ML-A1-C were incubated with LPS-primed monocytes of example 3.1; results are illustrated in FIGS. 3 and 4.
In general terms: Flow cytometry measures light scatter and fluorescence of single cells or particles in a stream.

The next data set deals with HLA-DR. Briefly: HLA-DR level in LPS-primed monocyte model (flow cytometry). The data set is classed as cell-based, human. To be noted: LPS-primed monocytes; FIG. 3.
From the text: as §2, §3
In this example, an LPS-primed monocyte model was established and then used to evaluate the function of the compound of example 1. Specifically, monocytes isolated from healthy subjects according to procedures described in the “Materials and methods” section were incubated with LPS (100 ng/mL) for 72 hours, then respective levels of PD-L1 and HLA-DR were determined. Results are illustrated in FIG. 2. […]

The test system of data set [6] is B16F10 lung metastases. Briefly: Compounds and anti-PD-1 antibody combination therapy in B16F10 lung metastasis model (survival). Type of data set: in vivo, C57BL/6 mice. The note with it: compound 2 mg/kg daily combined with anti-PD-1 (J43) 5 mg/kg every 3-4 days; C57BL/6. As for the experimental part: C57BL/6 mice were injected iv with 2×10^5 B16F10 cells on Day0. On Day1, mice were injected ip with either control hamster Ig (CTRL IgG) or hamster anti-mouse-PD-1 (J43) at 5 mg/kg every 3-4 days. For combination therapies, mice were daily injected with 2 mg/kg of ML-C19-A or ML-A1-C combined with anti-mouse PD-1 (5 mg/kg) every 3-4 days. Long-term of survival of treated mice in each of the experimental groups were observed.
To examine whether combination of ML-C19-A or ML-A1-C with anti-PD-1 antibody would prolong mice survival in B16F10 lung metastasis model, mice were injected ip with compounds and anti-PD-1 antibody.

The subject of data set [7] is murine B16F10 melanoma cells. Kind of data set: MTS cytotoxicity assay, B16F10. The data set is classed as cell-based. To be noted: Mus musculus, B16-F10, B16F10; FIG. 6; read-out: IC50 (MTS assay), B16F10 melanoma cell line. As for the experimental part:
(§4) The B16F10 and human PBMCs were incubated in the presence of various concentrations of ML-A1-B and ML-A1-C compounds for 1 day. The cell cytotoxicity was monitored through MTS assay. Optical density of DMSO control groups was taken as 100% of cell viability. Values are presented as the mean±SEM from 3 independent experiments.
(§5) 5×10^3 of B16F10 cells were seeded into 96-well plates and treated with the following: DMSO control, various concentrations of naphthalimide derived compounds for 2 day. For the MTS assay (Promega), 40 ul of the MTS reagent was added into each well. Cells were incubated at 37° C. for 4 hr. The absorbance was detected at OD490 nm.
(§6) The cytotoxicity of various concentrations of ML-A1-B and ML-A1-C against murine B16F10 melanoma cells and human PBMCs were examined by MTS assay. […] Therapeutic index by MTS assay is about 5.62.

The test system of the next data set is human PBMCs. Kind of data set: MTS cytotoxicity assay, human PBMCs. The data set is classed as cell-based. The method, then:
as §4, §5, §6
A general note: Formazan colour is commonly taken as a measure of viable cells.

As for `CN(C)CCN1C(=O)c2cccc3c(-c4nc5ccccc5o4)ccc(c23)C1=O` [ML-A1-B, 6-(Benzo[d]oxazol-2-yl)-2-(2-(dimethylamino)ethyl)-1H-benzo[de]isoquinoline-1,3(2H)-dione], in the data set with B16F10 lung metastases [1], the “number of lung metastases (lung nodules), mean” value is 41 and the “number of lung metastases (lung nodules), range” value was 2-90. Also, the “lung metastasis in immune deficient NOD/SCID mice” value in the data set on B16F10 lung metastases [2] is on record as “failed to inhibit lung metastasis”. Besides, in data set [3], the “body weight of the mice” value is “do not significantly reduce the body weight” and the “visible sign of toxicity” value is given as “no visible sign of toxicity”. In the data set on PD-L1 [4], the “PD-L1 on IFN-γ stimulated murine B16F10 melanoma cell line” value is reported as “significantly suppresses PD-L1”. In the data set on PD-L1 [5], the “expression level of PD-L1 in LPS-primed monocytes, of that of the control” value (“expression level of PD-L1” below) is recorded as around 9.4%. Moreover, in the data set with HLA-DR, the “levels of HLA-DR expression” value was “capable of altering the levels of HLA-DR expression”.
Consider `NS(=O)(=O)c1ccc(N2C(=O)c3cccc4cccc(c34)C2=O)cc1` [ML-C19-A], for which, in the data set on PD-L1 [5], the “expression level of PD-L1” value was “about 37.5%”. For the same molecule, the overall survival entry in the data set with B16F10 lung metastases [6] is “an increase in overall survival”.
`NS(=O)(=O)c1ccc(N2C(=O)c3cccc4c(Br)ccc(c34)C2=O)cc1` [ML-C19-B, 4-(6-bromo-1,3-dioxo-1H-benzo[de]isoquinolin-2(3H)-yl)benzene-sulfonamide]: the “reduction in PD-L1 level as compared with that of the control” value with PD-L1 [5] (LPS-primed monocytes, FIG. 3) came out at 20%. Moreover, the “levels of HLA-DR expression” value in the data set with HLA-DR is reported as “capable of altering the levels of HLA-DR expression”.
In the case of `CN(C)CCN1C(=O)c2cccc3c(-c4nc5ccccc5s4)ccc(c23)C1=O` [ML-A1-C, 6-(Benzo[d]thiazol-2-yl)-2-(2-(dimethylamino)ethyl)-1H-benzo[de]isoquinoline-1,3(2H)-dione], in the data set on B16F10 lung metastases [1], the “number of lung metastases (lung nodules), mean” value stood at 30 and the “number of lung metastases (lung nodules), range” value was 3-59. For the same molecule, in the data set on B16F10 lung metastases [2], the “lung metastasis in immune deficient NOD/SCID mice” value is recorded as “failed to inhibit lung metastasis”. In data set [3], the “body weight of the mice” value is given as “do not significantly reduce the body weight” and the “visible sign of toxicity” value is reported as “no visible sign of toxicity”. Also, the “PD-L1 on IFN-γ stimulated murine B16F10 melanoma cell line” value with PD-L1 [4] is “significantly suppresses PD-L1”. For the same molecule, the half-maximal inhibitory concentration (IC50) (in general, the concentration that inhibits the measured activity by half) in [7] was determined as 7.8 ± 0.05 µM. For the same molecule, 48.3 ± 0.14 µM corresponded to half-maximal inhibition in the data set with human PBMCs (Homo sapiens, PBMC, human PBMCs, FIG. 6) (IC50). Further, the “Therapeutic index by MTS assay” value with human PBMCs (ratio of PBMC IC50 to B16F10 IC50) is listed as “about 5.62”. Besides, the “expression level of PD-L1” value in the data set on PD-L1 [5] was around 50.8%. Moreover, the “levels of HLA-DR expression” value with HLA-DR is “capable of altering the levels of HLA-DR expression”. Also, the overall survival result with B16F10 lung metastases [6] is reported as “an increase in overall survival”.
